In ChEMBL document CHEMBL2396542, “Membrane anchoring γ-secretase modulators with terpene-derived moieties” (Bioorg Med Chem Lett, 2013):

Tests used:
[1] = Micelle aggregation by compound at 5 to 100 uM by dynamic light scattering assay; type: physicochemical
[2] = target: T1, Presenilin-1 (Homo sapiens, UniProt P49768); experiment: Modulation of human gamma-secretase presenilin-1 subunit expressed in CHO cells coexpressing human APP assessed as decrease in amyloid beta 42 generation after 24 hrs by ELISA; type: cell-based
[3] = target: T1, Presenilin-1; experiment: Modulation of human gamma-secretase presenilin-1 subunit expressed in CHO cells coexpressing human APP assessed as increase in amyloid beta 38 generation at EC50 after 24 hrs by ELISA relative to control; type: cell-based
[4] = Micelle formation by compound at 5 to 100 uM by dynamic light scattering assay; type: physicochemical
[5] = target: T1, Presenilin-1; experiment: Modulation of human gamma-secretase presenilin-1 subunit expressed in CHO cells coexpressing human APP assessed as decrease in amyloid beta 40 generation after 24 hrs by ELISA; type: cell-based
[6] = target: T1, Presenilin-1; experiment: Modulation of human gamma-secretase presenilin-1 subunit expressed in CHO cells coexpressing human APP assessed as increase in amyloid beta 38 generation after 24 hrs by ELISA; type: cell-based
[7] = Micelle aggregation by compound at 100 uM by dynamic light scattering assay; type: physicochemical
[8] = Micelle formation by compound at 100 uM by dynamic light scattering assay; type: physicochemical

Row | Activity [1] | IC50 ([2]; read-out: IC50) | IC50 ([2]; read-out: pIC50 (converted)) | Activity [3] | Activity [4] | IC50 [5] | EC50 [6] | Activity [7] | Activity [8] | SMILES
1 | Not Active | 12 µM | 31.6 µM | 55% | Not Active | 26 µM | 4 µM | – | – | Cc1c(C)c2c(c(C)c1OCC(=O)O)CCC(C)(CCCC(C)CCCC(C)CCCC(C)C)O2 (stereo not drawn)
2 | Not Active | 35 µM | – | 60% | Not Active | 42 µM | 11 µM | – | – | CCCCCCCCOC(=O)C1(C)CCc2c(C)c(OCC(=O)O)c(C)c(C)c2O1 (stereo not drawn)
3 | Not Active | 28 µM | 31.6 µM | 35% | Not Active | 39 µM | 8 µM | – | – | CC(C)=CCC/C(C)=C/CC/C(C)=C/COc1c(C)c(C)c2c(c1C)CCC(C)(C(=O)O)O2 (stereo not drawn)
4 | Not Active | 27 µM | 39.8 µM | 35% | Not Active | 25 µM | 1 µM | – | – | CC(C)=CCC/C(C)=C/CC/C(C)=C/COC(=O)C1(C)CCc2c(C)c(OCC(=O)O)c(C)c(C)c2O1 (stereo not drawn)
5 | Not Active | 24 µM | 39.8 µM | 135% | Not Active | 36 µM | 13 µM | – | – | C/C(=C\COC(=O)C1(C)CCc2c(C)c(OCC(=O)O)c(C)c(C)c2O1)CCC[C@H](C)CCC[C@H](C)CCCC(C)C (stereo partly drawn)
6 | Not Active | 26 µM | 39.8 µM | 35% | Not Active | 42 µM | 10 µM | – | – | C/C(=C\COc1c(C)c(C)c2c(c1C)CCC(C)(C(=O)O)O2)CCC[C@H](C)CCC[C@H](C)CCCC(C)C (stereo partly drawn)
7 | – | > 100 µM | – | – | – | > 100 µM | > 100 µM | – | – | COC(=O)COc1c(C)c(C)c2c(c1C)CCC(C)(CCCC(C)CCCC(C)CCCC(C)C)O2 (stereo not drawn)
8 | Not Active | 4 µM | 31.6 µM | 80% | Not Active | 26 µM | 2 µM | – | – | CC(C)=CCC/C(C)=C/CC/C(C)=C/Cn1c2ccc(Cl)cc2c2ccc(C(C)C(=O)O)cc21 (stereo not drawn)
9 | Not Active | 12 µM | 31.6 µM | 100% | Not Active | 23 µM | 5 µM | – | – | CCCCCCCCCCCOC(=O)C1(C)CCc2c(C)c(OCC(=O)O)c(C)c(C)c2O1 (stereo not drawn)
10 | – | > 100 µM | – | – | – | > 100 µM | > 100 µM | – | – | Cc1c(C)c2c(c(C)c1O)CCC(C)(CCCC(C)CCCC(C)CCCC(C)C)O2 (racemic) [alpha-TOCHOPHEROL]
11 | Not Active | 22 µM | 39.8 µM | 95% | Not Active | 34 µM | 6 µM | – | – | CCCCCCCCCCCCCCOC(=O)C1(C)CCc2c(C)c(OCC(=O)O)c(C)c(C)c2O1 (stereo not drawn)
12 | Not Active | 28 µM | 31.6 µM | 65% | Not Active | > 50 µM | 10 µM | Active | Active | CCCCCCCCCCCOc1c(C)c(C)c2c(c1C)CCC(C)(C(=O)O)O2 (stereo not drawn)
13 | Not Active | 23 µM | 39.8 µM | – | Not Active | > 50 µM | > 50 µM | – | – | C/C(=C\Cn1c2ccc(Cl)cc2c2ccc(C(C)C(=O)O)cc21)CCC[C@H](C)CCC[C@H](C)CCCC(C)C (stereo partly drawn)
14 | Not Active | 57 µM | 25.1 µM | – | Not Active | > 50 µM | > 50 µM | – | – | CCCCCCCCOc1c(C)c(C)c2c(c1C)CCC(C)(C(=O)O)O2 (stereo not drawn)
15 | Not Active | 14 µM | 31.6 µM | 40% | Not Active | 29 µM | 9 µM | – | – | CCCCCCCCCCCCCCOc1c(C)c(C)c2c(c1C)CCC(C)(C(=O)O)O2 (stereo not drawn)
16 | Not Active | 11 µM | 31.6 µM | 55% | Not Active | 24 µM | 6 µM | – | – | Cc1c(C)c2c(c(C)c1OCC(=O)O)CCC(C)(CCC[C@H](C)CCC[C@H](C)CCCC(C)C)O2 (stereo partly drawn)
